Results: ChEMBL document CHEMBL4814028, “Design, synthesis, and antibacterial evaluation of PFK-158 derivatives as potent agents against drug-resistant bacteria” (Bioorg Med Chem Lett, 2021)
Values after ≈ are worked out from the molar mass of the structure shown.

Assays:
Format in all cases: functional
Escherichia coli [1] = assay: Antibacterial activity against ESBLs negative Escherichia coli ATCC 25922 by agar method
Enterococcus faecalis [2] = assay: Antibacterial activity against Vancomycin-sensitive Enterococcus faecalis ATCC 29212 by agar method
[3] = system: Staphylococcus epidermidis; assay: Antibacterial activity against methicillin-sensitive Staphylococcus epidermidis ATCC 12228 by agar method
[4] = system: Staphylococcus epidermidis; assay: Antibacterial activity against methicillin-resistant Staphylococcus epidermidis 16-5 by agar method
Acinetobacter baumannii = assay: Antibacterial activity against carbapenem-resistant Acinetobacter baumannii 16-33 by agar method
Staphylococcus aureus [5] = assay: Antibacterial activity against methicillin-sensitive Staphylococcus aureus ATCC 29213 by agar method
Escherichia coli [6] = assay: Antibacterial activity against NDM-1 positive Escherichia coli ATCC 2469 by agar method
Escherichia coli [7] = assay: Antibacterial activity against ESBLs positive Escherichia coli ATCC 35218 by agar method
Staphylococcus aureus [8] = assay: Antibacterial activity against methicillin-resistant Staphylococcus aureus ATCC 33591 by agar method
Enterococcus faecalis [9] = assay: Antibacterial activity against vancomycin-resistant Enterococcus faecalis ATCC 51299 by agar method

Row | Compound | MIC (Escherichia coli [1]) | MIC (Enterococcus faecalis [2]) | MIC [3] | MIC [4] | MIC (Acinetobacter baumannii) | MIC (Staphylococcus aureus [5]) | MIC (Escherichia coli [6]) | MIC (Escherichia coli [7]) | MIC (Staphylococcus aureus [8]) | MIC (Enterococcus faecalis [9])
1 | O=C(/C=C/c1ccc2ccc(C(F)(F)F)cc2n1)c1ccc(O)c(O)c1 | > 128 µg/mL | > 128 µg/mL | 16 µg/mL (≈ 44.5 µM) | 16 µg/mL (≈ 44.5 µM) | > 128 µg/mL | 32 µg/mL (≈ 89.1 µM) | > 128 µg/mL | > 128 µg/mL | 32 µg/mL (≈ 89.1 µM) | > 128 µg/mL
2 | C[n+]1ccc(C(=O)/C=C/c2ccc3ccccc3c2)cc1.[I-] | > 128 µg/mL | > 128 µg/mL | 128 µg/mL | 128 µg/mL | > 128 µg/mL | 128 µg/mL | > 128 µg/mL | > 128 µg/mL | 64 µg/mL | > 128 µg/mL
3 | O=C(/C=C/c1ccncc1)c1ccc2ccccc2c1 | > 128 µg/mL | > 128 µg/mL | 4 µg/mL (≈ 15.4 µM) | 8 µg/mL (≈ 30.9 µM) | > 128 µg/mL | 8 µg/mL (≈ 30.9 µM) | > 128 µg/mL | > 128 µg/mL | 4 µg/mL (≈ 15.4 µM) | > 128 µg/mL
4 | O=C(/C=C/c1cnc2ccccc2c1)c1ccccn1 | > 128 µg/mL | 32 µg/mL (≈ 123 µM) | 8 µg/mL (≈ 30.7 µM) | 8 µg/mL (≈ 30.7 µM) | 128 µg/mL (≈ 492 µM) | 8 µg/mL (≈ 30.7 µM) | > 128 µg/mL | > 128 µg/mL | 8 µg/mL (≈ 30.7 µM) | 32 µg/mL (≈ 123 µM)
5 | O=C(/C=C/c1ccc2ccc(C(F)(F)F)cc2n1)c1ccccc1 | > 128 µg/mL | > 128 µg/mL | > 128 µg/mL | > 128 µg/mL | > 128 µg/mL | > 128 µg/mL | > 128 µg/mL | > 128 µg/mL | > 128 µg/mL | > 128 µg/mL
6 | O=C(/C=C/c1ccc2ncccc2c1)c1ccncc1 | > 128 µg/mL | 32 µg/mL (≈ 123 µM) | 16 µg/mL (≈ 61.5 µM) | 16 µg/mL (≈ 61.5 µM) | 128 µg/mL (≈ 492 µM) | 8 µg/mL (≈ 30.7 µM) | > 128 µg/mL | > 128 µg/mL | 8 µg/mL (≈ 30.7 µM) | 32 µg/mL (≈ 123 µM)
7 | C[n+]1cccc(C(=O)/C=C/c2ccc3ccc(C(F)(F)F)cc3n2)c1.[I-] | > 128 µg/mL | 128 µg/mL | 64 µg/mL | 64 µg/mL | > 128 µg/mL | 64 µg/mL | > 128 µg/mL | > 128 µg/mL | 32 µg/mL | 128 µg/mL
8 | O=C(/C=C/c1ccc2ccccc2c1)c1cccnc1 | > 128 µg/mL | > 128 µg/mL | > 128 µg/mL | > 128 µg/mL | > 128 µg/mL | > 128 µg/mL | > 128 µg/mL | > 128 µg/mL | > 128 µg/mL | > 128 µg/mL
9 | O=C(/C=C/c1cccnc1)c1ccc2ccc(C(F)(F)F)cc2n1 | > 32 µg/mL | > 32 µg/mL | > 32 µg/mL | > 32 µg/mL | > 32 µg/mL | > 32 µg/mL | > 32 µg/mL | > 32 µg/mL | 32 µg/mL (≈ 97.5 µM) | > 32 µg/mL
10 | O=C(/C=C/c1ccc2ccccc2n1)c1ccncc1 | > 32 µg/mL | 32 µg/mL (≈ 123 µM) | 32 µg/mL (≈ 123 µM) | 32 µg/mL (≈ 123 µM) | > 32 µg/mL | 32 µg/mL (≈ 123 µM) | > 32 µg/mL | > 32 µg/mL | 32 µg/mL (≈ 123 µM) | 32 µg/mL (≈ 123 µM)
11 | O=C(/C=C/c1ccc2ccccc2n1)c1ccc(O)c(O)c1 | > 64 µg/mL | > 64 µg/mL | 16 µg/mL (≈ 54.9 µM) | 32 µg/mL (≈ 110 µM) | > 64 µg/mL | 32 µg/mL (≈ 110 µM) | > 64 µg/mL | > 64 µg/mL | 32 µg/mL (≈ 110 µM) | > 64 µg/mL
12 | O=C(/C=C/c1cnc2ccccc2c1)c1ccncc1 | > 128 µg/mL | 32 µg/mL (≈ 123 µM) | 8 µg/mL (≈ 30.7 µM) | 8 µg/mL (≈ 30.7 µM) | 128 µg/mL (≈ 492 µM) | 8 µg/mL (≈ 30.7 µM) | > 128 µg/mL | > 128 µg/mL | 8 µg/mL (≈ 30.7 µM) | 16 µg/mL (≈ 61.5 µM)
13 | O=C(/C=C/c1ccc2ccccc2n1)c1ccc2c(c1)OCO2 | > 128 µg/mL | > 128 µg/mL | > 128 µg/mL | > 128 µg/mL | > 128 µg/mL | > 128 µg/mL | > 128 µg/mL | > 128 µg/mL | > 128 µg/mL | > 128 µg/mL
14 | O=C(/C=C/c1ccc2ncccc2c1)c1cccnc1 | > 128 µg/mL | 32 µg/mL (≈ 123 µM) | 8 µg/mL (≈ 30.7 µM) | 8 µg/mL (≈ 30.7 µM) | 128 µg/mL (≈ 492 µM) | 16 µg/mL (≈ 61.5 µM) | > 128 µg/mL | > 128 µg/mL | 16 µg/mL (≈ 61.5 µM) | 32 µg/mL (≈ 123 µM)
15 | COCOc1ccc(C(=O)/C=C/c2ccc3ccccc3n2)cc1OCOC | > 128 µg/mL | > 128 µg/mL | 4 µg/mL (≈ 10.5 µM) | 8 µg/mL (≈ 21.1 µM) | > 128 µg/mL | 8 µg/mL (≈ 21.1 µM) | > 128 µg/mL | > 128 µg/mL | 8 µg/mL (≈ 21.1 µM) | > 128 µg/mL
16 | C[C@H]1COc2c(N3CCN(C)CC3)c(F)cc3c(=O)c(C(=O)O)cn1c23.C[C@H]1COc2c(N3CCN(C)CC3)c(F)cc3c(=O)c(C(=O)O)cn1c23.O [LEVOFLOXACIN] |  | 1 µg/mL | 0.12 µg/mL | 8 µg/mL | 2 µg/mL | 0.12 µg/mL | 16 µg/mL |  | 0.12 µg/mL | 0.5 µg/mL
17 | COCOc1ccc(C(=O)/C=C/c2ccc3ccc(C(F)(F)F)cc3n2)cc1OCOC | > 64 µg/mL | > 64 µg/mL | > 64 µg/mL | > 64 µg/mL | > 64 µg/mL | > 64 µg/mL | > 64 µg/mL | > 64 µg/mL | > 64 µg/mL | > 64 µg/mL
18 | C[n+]1cccc(C(=O)/C=C/c2ccc3ccccc3c2)c1.[I-] | > 128 µg/mL | > 128 µg/mL | > 128 µg/mL | > 128 µg/mL | > 128 µg/mL | > 128 µg/mL | > 128 µg/mL | > 128 µg/mL | > 128 µg/mL | > 128 µg/mL
19 | O=C(/C=C/c1ccc2ccccc2c1)c1ccncc1 | > 128 µg/mL | > 128 µg/mL | > 128 µg/mL | > 128 µg/mL | > 128 µg/mL | > 128 µg/mL | > 128 µg/mL | > 128 µg/mL | > 128 µg/mL | > 128 µg/mL
20 | O=C(/C=C/c1ccc2ccc(C(F)(F)F)cc2n1)c1ccc2c(c1)OCO2 | > 128 µg/mL | > 128 µg/mL | > 128 µg/mL | > 128 µg/mL | > 128 µg/mL | > 128 µg/mL | > 128 µg/mL | > 128 µg/mL | > 128 µg/mL | > 128 µg/mL
21 | O=C(/C=C/c1cnc2ccccc2c1)c1cccnc1 | > 128 µg/mL | 32 µg/mL (≈ 123 µM) | 16 µg/mL (≈ 61.5 µM) | 32 µg/mL (≈ 123 µM) | 128 µg/mL (≈ 492 µM) | 16 µg/mL (≈ 61.5 µM) | > 128 µg/mL | > 128 µg/mL | 32 µg/mL (≈ 123 µM) | 32 µg/mL (≈ 123 µM)
22 | O=C(/C=C/c1cccnc1)c1ccc2ccccc2c1 | > 128 µg/mL | > 128 µg/mL | 4 µg/mL (≈ 15.4 µM) | 16 µg/mL (≈ 61.7 µM) | > 128 µg/mL | 8 µg/mL (≈ 30.9 µM) | > 128 µg/mL | > 128 µg/mL | 8 µg/mL (≈ 30.9 µM) | > 128 µg/mL
23 | O=C(/C=C/c1ccncc1)c1ccc2ccc(C(F)(F)F)cc2n1 | > 32 µg/mL | > 32 µg/mL | > 32 µg/mL | > 32 µg/mL | > 32 µg/mL | > 32 µg/mL | > 32 µg/mL | > 32 µg/mL | 16 µg/mL (≈ 48.7 µM) | > 32 µg/mL
24 | O=C(/C=C/c1ccc2ncccc2c1)c1ccccn1 | > 128 µg/mL | 32 µg/mL (≈ 123 µM) | 8 µg/mL (≈ 30.7 µM) | 8 µg/mL (≈ 30.7 µM) | 128 µg/mL (≈ 492 µM) | 8 µg/mL (≈ 30.7 µM) | > 128 µg/mL | > 128 µg/mL | 8 µg/mL (≈ 30.7 µM) | 32 µg/mL (≈ 123 µM)
